Laboratory results taken from patent publication US20110288125A1, “NOVEL USE OF PIPERINE” (Industry-Academic Cooperation Foundation, Yonsei University, priority 2009, published 2011).
“Also recorded” adds a separate entry of the source.

Assays:
[1] = test system: mouse adipocytes (3T3-L1); assay: Adipocyte differentiation inhibition, Oil Red O staining; format: cell-based; conditions: 14 days
Procedure: The effect of piperine on adipocyte differentiation and growth was investigated using mouse adipocytes (3T3-L1). Preadipocytes 3T3L1 were placed on a 12-well plate and cultured to confluency in a 5% CO2 incubator at 37° C. using DMEM containing 1% penicillin-streptomycin, 1% non-essential amino acids and 10% fetal bovine serum (FBS). The cultured 3T3-L1 cells were differentiated into adipocytes by culturing for 2 days in a medium containing 0.5 mM methylisobutylxanthine/1 μM dexamethasone/1 μg/mL insulin (DMI). The cells were differentiated into mature adipocytes by further culturing for 2 days in DMEM containing 1 μg/mL insulin. Subsequently, they were further cultured for 10 days while changing DMEM every other day to obtain fully differentiated adipocytes. Starting from the day when DMI was added to the 3T3-L1 cells, piperine was treated at concentrations of 0.1, 1, 10, 50 and 100 μM every other day. Piperine was purchased from Sigma and used after being dissolved in DMSO. For negative control, only DMSO was used. After the culturing for a total of 14 days, when the cells were fully differentiated, the medium was removed and the fats contained in the differentiated adipocytes were stained. […] To measure the triglyceride level of the differentiated 3T3-L1 cells, the stained cells were dissolved in 1 mL of isobutanol and OD value was measured at 600 nm.

[2] = test system: C57BL/6J mice; assay: Body weight, food efficiency and abdominal fat-pad weights in mice on high-fat diet; format: in vivo, mouse; conditions: 10 weeks
Procedure: The high-fat diet (HFD, 40% fat calorie, 17 g lard+3% corn oil/100 g diet) was used to induce obesity and piperine-containing diet had the same composition as the HFD except for containing 0.05% piperine. Normal diet (ND) was prepared according to AIN-76 rodent diet (see Table 1). [table] 5-week-old male C57BL/6J mice were accustomed to the laboratory environment for a week while feeding solid feed. […] Diet was provided between 10 and 11 a.m. every day along with water. Diet intake was measured every day, and body weight was measured every 3 days. In order to avoid transient body weight increase due to feed intake, body weight was measured 2 hours after removing the feedbox. […] In addition, food efficiency ratio (FER) was calculated by dividing accumulated body weight gain during test period into total diet uptake from the first day of test diet to sacrifice day. […] Further, regarding accumulation of abdominal fat, after fasting the test animal for at least 12 hours and anesthetizing with diethyl ether, blood, liver and abdominal fat tissues (epididymal, perirenal, mesenteric and retroperitoneal fat) were taken and weighed after washing with 0.1 M PBS (pH 7.4).

[3] = test system: Swiss albino mice; conditions: piperine 100 mg/kg once a day for 4 weeks before benzo[α]pyrene 50 mg/kg twice a week for 16 weeks; cited from earlier work
[4] = 0.05% piperine in HFD, per unit body weight, FIG. 4

**Q.** For O=C(/C=C/C=C/c1ccc2c(c1)OCO2)N1CCCCC1 [piperine], which “concentration at which differentiation of preadipocytes 3T3-L1 was decreased in a concentration-dependent manner” value ([1]; piperine 0.1, 1, 10, 50 and 100 μM every other day, vs DMSO, FIG. 1A) is on record?
**A.** ≥ 10 µM

**Q.** What about the “amount of intracellular fat (OD value at 600 nm of fats stained with Oil Red O)” value ([1]; piperine 0.1-100 μM, stain dissolved in isobutanol, FIG. 1B) of the same compound?
**A.** concentration-dependently reduced the amount of intracellular fat; also recorded: decrease in OD value in a concentration-dependent manner

**Q.** What about the “decrease in body weight gain (accumulated) compared to high-fat diet control group” value ([2]; 0.05% piperine in HFD, FIG. 2) of the same compound?
**A.** 68%

**Q.** And the “decrease in final body weight compared to high-fat diet control group” value ([2]; 0.05% piperine in HFD, FIG. 2)?
**A.** 40%

**Q.** What about the “daily food intake compared to high-fat diet control group” value ([2]; 0.05% piperine in HFD, FIG. 3) of the same compound?
**A.** reduced; also recorded: significant decrease

**Q.** What about the “reduction of food efficiency ratio (FER) compared to high-fat diet control group” value ([2]; 0.05% piperine in HFD, body weight gain / total diet intake, FIG. 3) of the same compound?
**A.** 64%

**Q.** What about the “reduction of epididymal fat-pad weight compared to high-fat diet control group” value [2, 4] of the same compound?
**A.** 63%

**Q.** And the “reduction of mesenteric fat-pad weight compared to high-fat diet control group” value [2, 4]?
**A.** 68%

**Q.** And the “reduction of perirenal fat-pad weight compared to high-fat diet control group” value [2, 4]?
**A.** 85%

**Q.** And the “reduction of retroperitoneal fat-pad weight compared to high-fat diet control group” value [2, 4]?
**A.** 63%

**Q.** And the “reduction of total abdominal (visceral) fat-pad weights compared to high-fat diet control group” value [2, 4]?
**A.** 66%

**Q.** What about the “feed efficiency compared to control group (HFD), in words” value ([2]; piperine-supplemented diet) of the same compound?
**A.** reduced

**Q.** And the “antioxidant indicators (SOD, CAT, GPX, GSH, vitamin E, vitamin C) in the tissues” value [3]?
**A.** significantly high values
